A short description of series [1]: Dynamic Vapour Sorption (DVS). Type of series: physicochemical. As for the experimental part: Sorption isotherms were obtained using a Hiden Isochema moisture sorption analyser (IGAsorp Systems Firmware V20.19.005 COM3) and operated by Isochema Hlsorp 2019 V4.02.0102. The sample was maintained at a constant temperature (25° C.) by the instrument controls. The humidity was controlled by mixing streams of dry and wet nitrogen, with a total flow of 250 ml.min-1. The weight change of the sample was monitored as a function of humidity by a microbalance (accuracy +/− 0.001 mg).
A defined amount of sample was placed in a tared mesh stainless steel basket under ambient conditions. A typical experimental run consisted of three cycles (desorption, sorption, desorption, sorption, desorption and sorption) at a constant temperature (25° C.) and 10% RH intervals over a 0-90% RH range (60 minutes for each humidity level).
This is to obtain in-depth profiling of the material towards humidity at these elevated levels.

Another series addresses hERG (Homo sapiens, UniProt Q12809). In words: in vitro. The text has this: This assay is employed as a screen to assess potential risks for QT interval prolongation.
For another series, the system named is Sprague-Dawley rats. In words: Maximum tolerated dose followed by 7-day repeat-dose toxicology in rats (Study 700040). Type of series: in vivo. Conditions: rat. As for the experimental part:
The study consisted of 2 parts. […] The doses used in part 1 were 15, 30, 50, 65, and 75 mg/kg. Each subsequent dose was administered following at least 24 hours from the commencement of the previous dose. There were 2 males and 2 females in each dose group.
During Phase I, assessments of mortality, clinical signs and body weights were performed. […] The necropsy consisted of an external examination, including reference to all clinically-recorded lesions, as well as a detailed internal examination.
During Phase 2, assessments of mortality, clinical signs and body weights were performed. Following dosing, all animals were euthanized and subjected to a necropsy examination on Day 8. The necropsy consisted of an external examination, including reference to all clinically-recorded lesions, as well as a detailed internal examination. Study plan specific tissues/organs were collected and retained, then trimmed and preserved promptly once the animal was euthanized but these were not further examined microscopically.

Series [2] deals with Chinese hamster ovary (CHO)-K1 cells. As to the kind of experiment: In vitro micronucleus test (flow cytometry). Format: cell-based. The text has this:
The treatment with the vehicle/negative and positive controls was concurrently performed.
On the technique in general: Flow cytometry measures light scatter and fluorescence of single cells or particles in a stream.

For series [3], the system named is Salmonella typhimurium tester strains TA98, TA100, TA1535, and TA1537. In words: Bacterial Reverse Mutation Test (Ames test), S. typhimurium. Conditions: for cytotoxicity: 5000 μg/plate.
The mark [4] stands for this setting: intranasal 75 mg/kg for 7 consecutive days.

This is an account of results in patent US20230382858A1 (Beckley Psytech Limited, priority 2020, published 2023).

Some results are limits rather than exact numbers.

hERG, sequence (Q12809 whole entry): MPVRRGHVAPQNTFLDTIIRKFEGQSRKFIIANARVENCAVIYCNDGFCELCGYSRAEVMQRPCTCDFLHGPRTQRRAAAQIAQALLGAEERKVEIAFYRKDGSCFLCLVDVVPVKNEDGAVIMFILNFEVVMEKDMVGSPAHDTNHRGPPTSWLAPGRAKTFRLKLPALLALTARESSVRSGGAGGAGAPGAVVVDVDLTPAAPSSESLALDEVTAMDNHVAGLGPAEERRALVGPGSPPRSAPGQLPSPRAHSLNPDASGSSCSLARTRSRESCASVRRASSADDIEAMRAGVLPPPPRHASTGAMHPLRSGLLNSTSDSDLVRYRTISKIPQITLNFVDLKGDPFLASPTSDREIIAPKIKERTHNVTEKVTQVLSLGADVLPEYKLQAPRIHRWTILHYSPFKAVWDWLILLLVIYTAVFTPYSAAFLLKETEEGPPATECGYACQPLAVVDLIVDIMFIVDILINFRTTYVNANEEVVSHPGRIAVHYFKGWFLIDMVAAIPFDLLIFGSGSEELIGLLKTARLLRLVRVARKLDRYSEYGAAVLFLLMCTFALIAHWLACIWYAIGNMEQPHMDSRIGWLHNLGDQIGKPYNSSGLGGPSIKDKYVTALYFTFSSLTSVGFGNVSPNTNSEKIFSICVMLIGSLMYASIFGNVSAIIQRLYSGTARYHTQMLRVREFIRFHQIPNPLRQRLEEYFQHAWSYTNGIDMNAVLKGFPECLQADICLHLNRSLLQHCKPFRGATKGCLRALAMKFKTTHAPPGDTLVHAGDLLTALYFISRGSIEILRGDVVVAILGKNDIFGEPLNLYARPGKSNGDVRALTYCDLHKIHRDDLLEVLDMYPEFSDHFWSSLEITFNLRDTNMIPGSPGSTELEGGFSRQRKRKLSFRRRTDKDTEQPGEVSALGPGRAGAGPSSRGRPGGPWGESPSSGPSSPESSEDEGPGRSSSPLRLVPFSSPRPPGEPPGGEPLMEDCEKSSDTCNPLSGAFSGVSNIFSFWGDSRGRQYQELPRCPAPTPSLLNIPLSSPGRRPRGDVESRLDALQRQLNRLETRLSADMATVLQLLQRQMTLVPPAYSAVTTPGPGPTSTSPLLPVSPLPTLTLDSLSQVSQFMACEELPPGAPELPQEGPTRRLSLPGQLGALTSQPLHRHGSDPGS

Turning to `COc1ccc2[nH]cc(CCN(C)C)c2c1.Cl` [5MeODMT Hydrochloride, lot 20/45/006-FP, 5MeODMT Hydrochloride], the moisture increase entry in series [1] (70-75% RH) is “ca. 0.46 % w/w”. Moreover, the further moisture uptake entry in series [1] (75-80% RH) is reported as “ca. 7%”; in series [1] (80-85%), “ca. 40%”. Further, the stability towards humidity result in series [1] (DVS) was “robustness between 0-75% RH”. Also, the “state of solids post DVS analysis” value in series [1] (modified DVS up to 85% RH, likely occurred above 80% RH) was “Complete deliquescence”.
Regarding `COc1ccc2[nH]cc(CCN(C)C)c2c1` [5MeODMT, 5-methoxy-N,N-dimethyltryptamine], the inhibition (as a rule, the relative decrease from the control value, in per cent) at 30 µM against hERG was found to be 77.8 ± 7.4%. Besides, in the series on Sprague-Dawley rats (setting [4]), the body weight gain entry is on record as “slightly suppressed for both sexes”, the “macroscopic observation: dark/pale area of the lungs” value is reported as 2/10, the mortality entry is “no mortalities” and the tolerability result was “tolerated”. In addition, in the series on Sprague-Dawley rats (single intranasal 15-75 mg/kg), the clinical signs result is “incoordination, shallow or increased respiration, sneezing, salivation, decreased activity, piloerection, white pasty material around penis (for males), ptosis, laying on the cage floor, and sensitive to touch and shaking”; the “mortality and gross pathology” value was “no mortality and gross pathology findings at any dose”; the “time to resolution of most clinical signs post dose” value was at most 1 h. For the same compound, the tolerability result in the series with Sprague-Dawley rats (single intranasal, dose levels up to 75 mg/kg) is given as “tolerated”. Moreover, the body weight gain result in the series on Sprague-Dawley rats (single intranasal, females at 75 mg/kg) is given as “slightly suppressed”. Also, the “chromosome-damaging potential (conclusion)” value in series [2] (CHO-K1 cells) is “no chromosome-damaging potential”. Also, the cytotoxicity or precipitation entry in series [2] (up to 300 μg/mL, all treatment periods) is recorded as “No cytotoxicity or precipitation”. Further, in series [3] (absence of S9 mix), the cytotoxicity result is listed as “higher levels of cytotoxicity”. For the same compound, in series [3] (presence of S9 mix), the cytotoxicity entry was “remained slight”. The “revertant colonies in repeated test” value in series [3] (TA1537 and TA98, absence of S9 mix, 15-2000 μg per plate) is on record as “no increases in the revertant colonies number per plate”. In series [3] (all bacteria strains tested, absence or presence of S9), the “mutagenic potential (conclusion)” value is given as “no mutagenic potential”.
Consider `COc1ccc2[nH]cc(CCN(C)C)c2c1.Cl` [5MeODMT Hydrochloride, lot 20/20/126-FP, 5MeODMT Hydrochloride], for which, in series [1] (0-90% RH cycles), the “state of material upon completion of the DVS cycle” value is recorded as “completed deliquesced”. The moisture uptake entry in series [1] (25° C., 0-70% RH) is on record as “less than 0.3 % w/w”; in series [1] (25° C., first sorption cycle, 70-80% RH), “Approximately 23 w/w”. In series [1] (25° C., subsequent sorption and desorption cycles), the “mass above the minimum recorded at 0% RH after subsequent cycles (retention of moisture)” value is recorded as 6-9 % w/w. This compound came in with a further moisture uptake in series [1] (25° C., up to and when held at 90% RH) of 20 % w/w.
